Data: the NIST ThermoML archive (doi:10.1016/j.fluid.2015.07.030)
± gives the expanded uncertainty stated by the source.

Assay: refractive index (other wavelength) (dimensionless); xn = mol fraction of the nth substance listed
Settings: 95.99 kPa, Liquid, Standard Abbe refractometry

OCCOCCOCCO [triethylene glycol] + O
Settings	refractive index
293.15 K, Wavelength=706.5 nm, x2 = 0.7835	1.41874 ± 0.00032
293.15 K, Wavelength=706.5 nm, x2 = 0.8184	1.41353 ± 0.00032
293.15 K, Wavelength=706.5 nm, x2 = 0.8473	1.40762 ± 0.00032
293.15 K, Wavelength=706.5 nm, x2 = 0.8719	1.40038 ± 0.00032
293.15 K, Wavelength=706.5 nm, x2 = 0.8926	1.39232 ± 0.00032
293.15 K, Wavelength=706.5 nm, x2 = 0.9106	1.387 ± 0.00032
293.15 K, Wavelength=706.5 nm, x2 = 0.9254	1.37665 ± 0.00032
293.15 K, Wavelength=706.5 nm, x2 = 0.9303	1.37778 ± 0.00031
293.15 K, Wavelength=706.5 nm, x2 = 0.9391	1.37396 ± 0.00031
293.15 K, Wavelength=706.5 nm, x2 = 0.951	1.36871 ± 0.00032
293.15 K, Wavelength=706.5 nm, x2 = 0.9599	1.36106 ± 0.00032
293.15 K, Wavelength=706.5 nm, x2 = 0.9708	1.35328 ± 0.00031
293.15 K, Wavelength=706.5 nm, x2 = 0.979	1.34824 ± 0.00031
293.15 K, Wavelength=706.5 nm, x2 = 0.9867	1.3421 ± 0.00031
293.15 K, Wavelength=706.5 nm, x2 = 0.9936	1.33593 ± 0.00031
298.15 K, Wavelength=404.7 nm, x2 = 0	1.46749 ± 0.00033
298.15 K, Wavelength=404.7 nm, x2 = 0.1056	1.46604 ± 0.00033
298.15 K, Wavelength=404.7 nm, x2 = 0.2069	1.46428 ± 0.00032
298.15 K, Wavelength=404.7 nm, x2 = 0.3104	1.46096 ± 0.00032
298.15 K, Wavelength=404.7 nm, x2 = 0.4844	1.45699 ± 0.00032
298.15 K, Wavelength=404.7 nm, x2 = 0.5016	1.45596 ± 0.00032
298.15 K, Wavelength=404.7 nm, x2 = 0.5952	1.44911 ± 0.00032
298.15 K, Wavelength=404.7 nm, x2 = 0.6016	1.44913 ± 0.00032
298.15 K, Wavelength=404.7 nm, x2 = 0.6788	1.44244 ± 0.00032
298.15 K, Wavelength=404.7 nm, x2 = 0.7835	1.43274 ± 0.00032
298.15 K, Wavelength=404.7 nm, x2 = 0.8184	1.42742 ± 0.00032
298.15 K, Wavelength=404.7 nm, x2 = 0.8473	1.42101 ± 0.00032
298.15 K, Wavelength=404.7 nm, x2 = 0.8719	1.41326 ± 0.00032
298.15 K, Wavelength=404.7 nm, x2 = 0.8926	1.40601 ± 0.00032
298.15 K, Wavelength=404.7 nm, x2 = 0.9106	1.40032 ± 0.00032
298.15 K, Wavelength=404.7 nm, x2 = 0.9254	1.38959 ± 0.00032
298.15 K, Wavelength=404.7 nm, x2 = 0.9303	1.39111 ± 0.00031
298.15 K, Wavelength=404.7 nm, x2 = 0.9391	1.38696 ± 0.00032
298.15 K, Wavelength=404.7 nm, x2 = 0.951	1.38004 ± 0.00031
298.15 K, Wavelength=404.7 nm, x2 = 0.9599	1.374 ± 0.00031
298.15 K, Wavelength=404.7 nm, x2 = 0.9708	1.36592 ± 0.00031
298.15 K, Wavelength=404.7 nm, x2 = 0.979	1.36072 ± 0.00031
298.15 K, Wavelength=404.7 nm, x2 = 0.9867	1.35466 ± 0.00031
298.15 K, Wavelength=404.7 nm, x2 = 0.9936	1.34824 ± 0.00031
298.15 K, Wavelength=435.8 nm, x2 = 0	1.4639 ± 0.00033
298.15 K, Wavelength=435.8 nm, x2 = 0.1056	1.46248 ± 0.00033
298.15 K, Wavelength=435.8 nm, x2 = 0.2069	1.46074 ± 0.00032
298.15 K, Wavelength=435.8 nm, x2 = 0.3104	1.45745 ± 0.00032
298.15 K, Wavelength=435.8 nm, x2 = 0.4844	1.45354 ± 0.00032
298.15 K, Wavelength=435.8 nm, x2 = 0.5016	1.45252 ± 0.00032
298.15 K, Wavelength=435.8 nm, x2 = 0.5952	1.44572 ± 0.00032
298.15 K, Wavelength=435.8 nm, x2 = 0.6016	1.44575 ± 0.00032
298.15 K, Wavelength=435.8 nm, x2 = 0.6788	1.43909 ± 0.00032
298.15 K, Wavelength=435.8 nm, x2 = 0.7835	1.42946 ± 0.00032
298.15 K, Wavelength=435.8 nm, x2 = 0.8184	1.42417 ± 0.00032
298.15 K, Wavelength=435.8 nm, x2 = 0.8473	1.41783 ± 0.00032
298.15 K, Wavelength=435.8 nm, x2 = 0.8719	1.41082 ± 0.00032
298.15 K, Wavelength=435.8 nm, x2 = 0.8926	1.40293 ± 0.00032
298.15 K, Wavelength=435.8 nm, x2 = 0.9106	1.39727 ± 0.00032
298.15 K, Wavelength=435.8 nm, x2 = 0.9254	1.38664 ± 0.00032
298.15 K, Wavelength=435.8 nm, x2 = 0.9303	1.38813 ± 0.00031
298.15 K, Wavelength=435.8 nm, x2 = 0.9391	1.38402 ± 0.00032
298.15 K, Wavelength=435.8 nm, x2 = 0.951	1.37716 ± 0.00031
298.15 K, Wavelength=435.8 nm, x2 = 0.9599	1.37117 ± 0.00031
298.15 K, Wavelength=435.8 nm, x2 = 0.9708	1.36317 ± 0.00031
298.15 K, Wavelength=435.8 nm, x2 = 0.979	1.35801 ± 0.00031
298.15 K, Wavelength=435.8 nm, x2 = 0.9867	1.35198 ± 0.00031
298.15 K, Wavelength=435.8 nm, x2 = 0.9936	1.34565 ± 0.00031
298.15 K, Wavelength=486.1 nm, x2 = 0	1.45975 ± 0.00033
298.15 K, Wavelength=486.1 nm, x2 = 0.1056	1.45834 ± 0.00033
298.15 K, Wavelength=486.1 nm, x2 = 0.2069	1.45661 ± 0.00032
298.15 K, Wavelength=486.1 nm, x2 = 0.3104	1.45333 ± 0.00032
298.15 K, Wavelength=486.1 nm, x2 = 0.4844	1.44943 ± 0.00032
